In patent publication US20080070917A1, “METHODS FOR ADMINISTERING LEVOSIMENDAN” (priority 2005, published 2008):
Read-outs that look alike come from different tables or passages of the source.

How the values were obtained:
[1] = system: patients with New York Heart Association functional class II to III heart failure; assay: Double-blind, placebo-controlled study of a 24-hour levosimendan infusion in heart failure patients; assay type: in vivo, human
Procedure: A double-blind, placebo-controlled, parallel group, single center study in patients with New York Heart Association functional class II to III heart failure was conducted. Patients were randomised in 1:1 ratio to receive either levosimendan or placebo. Study drug administration was initiated with a loading dose of 12 μg/kg of levosimendan or placebo delivered over 10 minutes. This was followed by a continuous infusion of 0.1 μg/kg/min for 50 minutes. If the dose was well tolerated the infusion rate was increased to 0.2 μg/kg/min for a further 23 hours. After the study drug was started, the hemodynamic assessments were repeated at 30 minutes, at two and six hours. The non-invasive hemodynamic assessments were repeated at 24-hours. Follow-up visits took place at 2, 3, 5, 7, 9 and 14 days from the beginning of the study. On these visits echocardiographic measurements were performed and blood pressure and heart rate were measured.
An Acuson Sequoia ultrasound system with 2.5-3.75 MHz probes was used for the Doppler echocardiographic measurements. Blood flow velocity curves were recorded at a sweep speed of 100 mm/s. Left ventricular ejection fraction was assessed by two-dimensional apical two- and four-chamber views with use of modified Simpson rule. Mitral flow velocity was assessed by pulsed wave Doppler from the apical four-chamber view by placing a 3-mm sample volume between the tip of the mitral leaflets in diastole. The following measurements were made over five consecutive cycles: maximal early and maximal late diastolic velocity and their ratio, duration of the late diastolic velocity wave, deceleration time and deceleration rate of early diastolic velocity. Peak velocities were defined as the highest point of the spectrum.
Blood samples (4 ml) for natriuretic peptide (NT-proANP, NT-proBNP) measurements were taken into pre-cooled EDTA tubes. Samples were taken at baseline (0-sample) and on the first study day 30 min, 2 h, 6h and 24 h after the start of the infusion and in the mornings of days 2, 3, 5, 7, 9 and 14 after the start of the study drug infusion.

[2] = system: CHF patients; assay: PK-PD meta-analysis (NONMEM, Emax model) of eight studies in CHF patients; assay type: in vivo, human; details: for EC50: Homo sapiens, effective concentration (composite of levosimendan, OR-1855, OR-1896)
Procedure: Data from eight studies (Studies 300102, 300103, 300105, 3001022, 3001024, 3001040, 3001058 (Group 1 and 2) and 3001058 (Group 4)) (335 CHF patients) were combined to generate the PK-PD dataset. Dose regimens included infusions of various doses (0.25-70.6 mg) and infusion durations (5 min-7 days), with or without an initial loading dose. In addition to plasma concentration-time data the PD variables utilized in the PK-PD evaluation were PCWP, CI, HR, SBP, and DBP.
Population PK models were built using a non-linear mixed-effect population modelling approach with the NONMEM software. The sequence of modelling was such that levosimendan PK was modelled first. Then the levosimendan portion of the full PK model was fixed, and individual PK parameters were carried forward in order to simultaneously model the metabolites PK. In the PK model it was assumed that levosimendan is fully metabolized to OR-1855, which is further metabolized to OR-1896. A gut compartment with first-order input from the levosimendan compartment and first-order output to the OR 1855 compartment was incorporated to account for the considerable delay between levosimendan elimination and metabolite appearance. This delay represents transport of levosimendan from plasma to gut and further transit to colon, metabolism of levosimendan to OR-1855 in the colon, and the subsequent absorption of OR-1855 from the colon. Elimination of the metabolites and inter-conversion between the two metabolites were modelled as first-order processes (See, FIG. 1). A mixture model allowing different inter-conversion rates for slow and rapid acetylators was beneficial in describing the data.
Covariates (fixed effects) such as demographic characteristics and patient attributes, for e.g. ejection fraction (EF), New York Heart Association classification (NYHA), serum bilirubin, and creatinine clearance etc. were tested individually in a stepwise method. The intra-subject effects or residual error was modelled as additive, proportional (constant coefficient of variation) or combination of the two for the PK model. The inter-subject effects were modelled as exponential error model.
The full PK models for levosimendan and its metabolites were fixed for the PD modelling. For each individual, plasma concentrations were calculated using the post-hoc PK parameter estimates for that individual. A maximal drug effect (Emax) model described by the following general equation was used to describe the relation between the estimated concentrations of drug and metabolites, and effect. E=Emax*Ceff/(EC50+Ceff) • Where: Ceff is the apparent effective concentration in the hypothetical effect compartment that may be a composite of drug and metabolite concentrations; EC50 is the effective concentration required to achieve 50% of Emax.
The equilibration rate constant (ke0) controls the time delay between the time courses of levosimendan concentration in the central compartment (Cp) and levosimendan concentration in the effect compartment (Clevo), and is expressed as dClevo/dT=ke0·(Cp−Clevo).
The contributions of the drug and the metabolites to the PD effects were modeled using a competitive agonist model that assumed same efficacy (Emax), but different potencies (EC50) for different compounds. A potency factor (RP) accounted for differences in potency and protein binding relative to levosimendan. […] Ceff=Clevo+RP1·COR-1855+RP2·COR-1896
Where RP1 and RP2 are the potencies of OR-1855 and OR-1896 relative to levosimendan, respectively.
The drug response was modelled as the absolute change from baseline and as the fractional change from baseline. The non-drug response was modelled either as a time dependent function or as an instantaneous response based on the following equations.
Where SSS is the maximum non-drug-related response. The exponent “a” represents the rate of onset of the non-drug response over time. […]

[3] = Unbound plasma fraction; assay type: in vitro ADME
[4] = system: subjects hospitalized with acute decompensation of heart failure; assay: Phase 3, double-blind, placebo-controlled study in acute decompensation of heart failure (Example 5); assay type: in vivo, human
Procedure: This was a Phase 3, double-blind, placebo-controlled, parallel-group study in subjects hospitalized with a primary or secondary admitting diagnosis of acute decompensation of heart failure. The treatment period was up to 24 hours for each subject with at least 90 days follow-up after the start of the study drug infusion. All baseline medications (including use of beta-blockers and other medications) were recorded for each patient. The study evaluated hospitalized subjects (n=600) with a primary or secondary admitting diagnosis of worsening heart failure, with symptoms at rest despite treatment with IV diuretic therapy. […] Infusion rates for background therapy of continuous IV diuretics, inotropes and vasodilators had to have been unchanged for at least two hours prior to the baseline evaluation. Left ventricular ejection fraction (EF) was required to be less than or equal to 35% as assessed within the previous 12 months. Subjects were randomized to either levosimendan (n=299) or placebo (n=301) in addition to standard-of-care. Levosimendan treatment was initiated with a total loading dose of […] administered over 10 minutes (6 mg/kg for subjects on concomitant IV vasodilators or inotropes at the start of the study drug infusion) followed by a continuous infusion of […] for the following 50 minutes. If the dose was well tolerated, the infusion rate was increased to 0.2 mg/kg/min for a further 23 hours. If the higher dose was not well tolerated it was reduced to […] and then further to 0.05 mg/kg/min if required. On completion of 24 hours the infusion is turned off abruptly.
The primary objective of this study was to compare the efficacy between levosimendan and placebo treatments using the clinical composite endpoint (CCE) incorporating a subject reported PGA at 6 hours, 24 hours and Day 5, combined with clinical criteria for worsening heart failure through 5 days after the start of study drug infusion. In contrast to REVIVE I, the was CCE included a PGA at 6 hours as part of the primary endpoint and diuretics at any time during the 5 day assessment period were included as rescue therapy.
Episodes of worsening heart failure treated with a rescue therapy were collected during the initial hospitalization until Day 5 or discharge whichever was later. Safety parameters such as adverse events (AEs), HR, […] (BP), routine laboratory tests, and ECG were monitored frequently up to 31 days, with hospitalization and mortality extended to 90 days after start of study drug infusion. Survival was monitored for all randomized subjects from Day 90 until the last subject underwent the final scheduled visit.

Structure (SMILES): C[C@@H]1CC(=O)NN=C1c1ccc(NN=C(C#N)C#N)cc1 [levosimendan, (−)-enantiomer of [[4-(1,4,5,6-tetrahydro-4-methyl-6-oxo-3-pyridazinyl)phenyl]hydrazono]propanedinitrile]
- Maintenance of beneficial hemodynamic and neurohormonal effects ([1]; after levosimendan administration): up to two weeks
- Time of lowest echocardiographically estimated PCWP ([1]; after starting the infusion): 2 days
- Day of lowest plasma NT-proANP level ([1]; human, in vivo): 3 days
- Day of lowest plasma NT-proBNP level ([1]; human, in vivo): 2 days
- Duration of treatment effect on NT-proANP, linear model ([1]; human, in vivo): 16 days
- Duration of treatment effect on NT-proBNP, linear model ([1]; human, in vivo): 12 days
- Time of highest CO value estimated by echocardiography ([1]; human, in vivo): at the end of the 24-hour infusion
- EC50 ([2]; read-out: Post-hoc Mean EC50, CI): 0.09 µg/mL
- EC50 ([2]; read-out: Post-hoc Mean EC50, DBP): 0.154 µg/mL
- EC50 ([2]; read-out: Post-hoc Mean EC50, HR): 0.198 µg/mL
- EC50 ([2]; read-out: Post-hoc Mean EC50, PCWP): 0.0511 µg/mL
- EC50 ([2]; read-out: Post-hoc Mean EC50, SBP): 0.047 µg/mL
- Post-hoc Mean Emax, CI ([2]; baseline mean 2.21): 1.15 L/m^2/min
- Post-hoc Mean Emax, PCWP ([2]; baseline mean 20.8): −7.8 mmHg
- Post-hoc Mean Emax, DBP ([2]; baseline mean 71): −13.3 mmHg
- Post-hoc Mean Emax, HR ([2]; baseline mean 76): 18 Bpm
- Post-hoc Mean Emax, SBP ([2]; baseline mean 118): −7.1 mmHg
- Unbound plasma fraction [3]: 0.025
- Proportion of patients reporting moderate to marked improvement in dyspnea ([4]; at 6 hours (91/299), placebo/SOC 25.2%): 30.4%
- Improvement in self assessment (PGA) compared to placebo/SOC ([4]; beta-blocked patients, over the first 5 days, p=0.001): significantly greater improvement
- Improvement in self assessment (dyspnea) compared to placebo/SOC ([4]; over the first 5 days, p=0.018): significantly greater improvement
- Proportion of patients reporting moderate to marked improvement in PGA ([4]; overall population, at 6 hours (85/299), placebo/SOC 23.9%): 28.4%
- Improvement in PGA compared to placebo/SOC ([4]; overall population, over 5 days, p=0.002): significantly greater improvement
- Difference in PGA improvement compared to placebo/SOC ([4]; patients not receiving beta-blocker therapy (n=96)): not statistically significant
- Difference in dyspnea improvement between treatment groups ([4]; patients not receiving beta-blocker therapy, first 5 days): not statistically significant
- Proportion reporting moderate to marked improvements in dyspnea compared to placebo/SOC ([4]; patients receiving a beta-blocker at baseline, at 6 hours): greater proportion
- Proportion of patients reporting moderate to marked improvements in PGA ([4]; patients receiving a beta-blocker at baseline, at 6 hours, placebo/SOC 34%): 44%
- Improvement in dyspnea compared to placebo/SOC ([4]; patients receiving beta-blockers, over the first 5 days, p=0.0016): significantly greater improvement
- Other secondary endpoints, except 90-day mortality ([4]; versus placebo): trended in favor of levosimendan but did not reach statistical significance
